Assay results as given in patent publication US5908862A, “Water-miscible esters of mono--and diglycerides having antibacterial activity and their use in inhibiting infection” (priority 1996, dated 1999).

Tested on: human respiratory syncytial virus (RSV) in LLC-MK2 cells
Assay: RSV inhibition assay in LLC-MK2 cells (immunoperoxidase), PBS
Assay type: cell-based
Settings: Carrageenan's IC50; Carrageenan alone
Experimental: Additional studies were performed to determine the synergistic anti-viral effects of diacetyltartaric acid esters of mono- and diglycerides, lipophilic monoglycerides (MG) and carrageenan. These studies were carried out using […] and PBS as the diluent. The RSV inhibition assay semi-quantitatively determines the ability of a test material (antibody or other bioactive compound) to inhibit the infection of monkey kidney cells (LLC-MK2) by human respiratory syncytial virus (RSV). Infected cells are identified using an immunoperoxidase method and counted. The method is performed in a microtiter format and is described briefly below:
LLC-MK2 rhesus monkey kidney cells were obtained from the American Type Culture Collection and were cultured in Eagles […] essential medium (EMEM) supplemented with 10% fetal bovine serum. […] Plates were then rinsed as above with PBS/CEA, and the number of stained RSV-infected cells (IC) per well determined using an inverted microscope. The number of ICs' in triplicate wells was compared with the number of ICs' of virus control wells (mean of 9)and the percent inhibition (PI) calculated; [PI=1.0-[Mean ICs' per well of test sample/Mean ICs' per well of virus control]. […]

Substance: Carrageenan
- Enhancement Factor: 1.0
